Consider 2 compounds from patent US20160262390A1, “FIELD APPLICATION OF SUGARS TO INCREASE CROP YIELD” (Minn-Dak Farmers Cooperative, priority 2015, published 2016).

One test deals with soybeans. Kind of test: Soybean field trial, Wilkin County, Minnesota (NKS06-H5 seed). The test is classed as in vivo. As for the experimental part: To test the efficacy of using a sugar based fertilizer composition with soybeans, field trials using Northrup-King NKS06-H5 soybean seed were conducted in Wilkin County, Minnesota. A total of six (6) treatments were conducted. Each treatment was replicated four times arranged in a Randomized Complete Block (RCB) Design in the same field. Each replication consisted of a plot having a width of six (6) rows with twenty two (22) inch row spacing having a row length of twenty five (25) feet. To reduce/eliminate any treatment impacts between adjacent plots, only the four (4) interior rows of each plot were treated and evaluated. With the exception of the treatment program applied to the individual plots, which will be discussed below, conventional commercial growing practices were otherwise followed during the field trials. The individual plots experienced the same growing conditions throughout the season.
The treatment regimen for the soybeans included one (1) untreated treatment in which no sugar was applied and was used as the control element. One (1) treatment included treatment with Sun Energy Foliar Fertilizer (SE). […] SE was supplied in liquid form and applied by spraying while GS was supplied in a conventional solid form and applied via broadcast spreading. SE is for foliar application and was applied according to the labeling instructions on post-emergent (Post) soybean plants at both the Vegetative Fourth Trifoliolate (V4) and Reproductive Beginning Flowering (R1) stages. GS was applied at a variety of times, both pre-planting (Pre) and on post-emergent (Post) soybean plants at either or the V4 or R1 stages. When applied during pre-planting (Pre), the GS was spread directly on the soil before spring tillage, lightly worked into the ground and followed by planting of the soybean seed into the treated ground. A summary of the plot treatments is contained in Table 4 below:
Following a conventional growing season, the middle four rows of each plot were harvested and data collected for overall yield (bushels of soybeans/Acre), protein dry basis (%) and oil dry basis (%). Fisher's Exact LSD was the statistical test of choice for mean separation for the individual plots of each treatment. A summary of the soybean harvest data is contained in Table 5 below: […]

The next test deals with sugarbeets. Description: In-furrow sugar and/or fertilizer application on sugarbeets, Foxhome. The test is classed as in vivo, sugarbeet. The settings on record: for Recoverable Sugar / Sugarbeets / Yield Increase Compared to Check: in-furrow. As for the experimental part:
In addition to testing pre-planting application of sugar, additional in-furrow application of sugar during sugarbeet planting was conducted. This testing was conducted at the Foxhome location and included ten (10) separate treatments. These treatments included one (1) untreated check treatment in which no sugar was applied and constitutes the control element. The treatments included one (1) treatment in which only a conventional fertilizer (liquid ammonium phosphate commonly and hereafter referred to as “10-34-0”) was applied in-furrow. […] Four (4) treatments included the in-furrow application of concentrated raw sugar juice (hereafter “CONCRJ”) at varying rates and/or 10-34-0. Liquid sugar is essentially comprised of sucrose. […] Liquid sugar, concentrated raw juice and 10-34-0 were all mixed and diluted with water in a tank and a conventional sprayer was configured such that the liquid was sprayed so as to have the desired sugar and fertilizer equivalent. For the sugar applied at rates of three gallons per acre, the sugar mixture was equivalent to 25 pounds per acre of sugar. […] In each replication, the liquid was applied into the furrow during planting of the sugarbeet seeds. A summary of the in-furrow sugar beet testing is contained in Table 16 below: […]

[1] abbreviates: Replication 3: 100 pounds/Acre Pre + 3 pounds/Acre Post (V4).
[2] abbreviates: Replication 4: 3 pounds/Acre Post (R1).
Setting [3] is: Replication 5: 5 pounds/Acre Post (R1).
The mark [4] stands for this setting: Replication 6: 100 pounds/Acre Pre + 5 pounds/Acre Post (V4).
Where [5] appears, read: sugar 3 gal/acre + 10-34-0 3 gal/acre.
Setting [6] is: sugar 3 gal/acre, 10-34-0 0 gal/acre.
The mark [7] stands for this setting: sugar 5 gal/acre + 10-34-0 3 gal/acre.
[8] abbreviates: sugar 5 gal/acre, 10-34-0 0 gal/acre.

Consider `OC[C@H]1O[C@@](CO)(O[C@H]2O[C@H](CO)[C@@H](O)[C@H](O)[C@H]2O)[C@@H](O)[C@@H]1O` [GS, sucrose], for which the “side-by-side visual comparison of soybean plants with untreated check” value with soybeans (GS 100 pounds/acre prior to planting, 40 and 60 days after planting (FIGS. 7-9)) is “larger more robust soybean plants”. Also, the “Bushels of Soybeans/Acre” value in the test with soybeans (setting [1]) is on record as 52.92 bushels/Acre; in the test on soybeans (setting [2]), 35.56 bushels/Acre; in the test with soybeans (setting [3]) it was 40.14 bushels/Acre; with soybeans (setting [4]) it was 45.28 bushels/Acre. Besides, the “Yield Increase (Treatment Bushels of Soybeans/Acre)/(Check Bushels of Soybeans/Acre)” value with soybeans (setting [1]) is 31.84%; with soybeans (setting [2]), −11.41%; in the test on soybeans (setting [3]), 0.00%; in the test with soybeans (setting [4]) it was 12.81%. For the same compound, the “yield increase as compared to the untreated check” value in the test on soybeans (every pre-planting (Pre) application of GS) is reported as “at least 12.8%”. Besides, the yield data result in the test on soybeans (only post-emergent application of GS) is “inconclusive”.
For the compound `OC[C@H]1O[C@@](CO)(O[C@H]2O[C@H](CO)[C@@H](O)[C@H](O)[C@H]2O)[C@@H](O)[C@@H]1O` [LIQSUC, sucrose], the “recoverable sugar compared to the check treatment and to 10-34-0 only” value with sugarbeets (every in-furrow application of liquid sucrose) is recorded as “increase in recoverable sugar”. In the test with sugarbeets (in-furrow liquid sucrose plus 10-34-0), the “recoverable sugar compared to the same amount of liquid sugar with no 10-34-0” value is on record as “increase in recoverable sugar”. Also, the “Recoverable Sugar” value is 6437.113 Pounds/Acred with sugarbeets (setting [5]), 5777.0474 Pounds/Acred in the test with sugarbeets (setting [6]), 6262.2908 Pounds/Acred in the test on sugarbeets (setting [7]) and 5881.91 Pounds/Acred in the test with sugarbeets (setting [8]). Also, the Sugarbeets with sugarbeets (setting [5]) came to 26.3981 Tons/Acre; with sugarbeets (setting [6]), 23.42 Tons/Acre; with sugarbeets (setting [7]), 25.66 Tons/Acre; in the test on sugarbeets (setting [8]), 24.38 Tons/Acre. Further, the “Yield Increase Compared to Check” value in the test on sugarbeets (setting [5]) worked out at 12.79%; in the test on sugarbeets (setting [6]) it was 1.23%; in the test on sugarbeets (setting [7]), 9.73%; with sugarbeets (setting [8]) it was 3.06%.
